From patent US10829478B2, “5-[3-[piperazin-1-yl]-3-oxo-propyl]-imidazolidine-2,4-dione derivatives as ADAMTS 4 and 5 inhibitors for treating e.g. osteoarthritis” (Galapagos NV, priority 2016, dated 2020)

Key:
[1] = molecular target: human ADAMTS6 (Homo sapiens (Human), UniProt Q9UKP5); experiment: hADAMTS-6 fluorescent based protease assay (520 MMP FRET substrate XII); type: biochemical; conditions: 37° C. for 2 h; read-out: hADAMTS-6 potency IC50
In short: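 ADAMTS6 (0.73 nM final) in 25 mM Tris pH 8.0, 0.05% CHAPS, 2.5 mM CaCl2 with compound dilution series (top 20 μM, 1/5 steps). Reaction started with 520 MMP FRET Substrate XII, incubated 2 h at 37 °C. Substrate cleavage read by fluorescence ex485/em530; IC50 determined.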

[2] = molecular target: rnADAMTS-5 (1-564-6H) (Rattus norvegicus (Rat), UniProt Q6TY19); experiment: Rat ADAMTS-5 TBIS-1 cleavage assay; type: biochemical; conditions: 120 min at 37° C.; read-out: Rat ADAMTS-5 potency IC50
Sequence of rnADAMTS-5 (1-564-6H) (Q6TY19 entry or part of it): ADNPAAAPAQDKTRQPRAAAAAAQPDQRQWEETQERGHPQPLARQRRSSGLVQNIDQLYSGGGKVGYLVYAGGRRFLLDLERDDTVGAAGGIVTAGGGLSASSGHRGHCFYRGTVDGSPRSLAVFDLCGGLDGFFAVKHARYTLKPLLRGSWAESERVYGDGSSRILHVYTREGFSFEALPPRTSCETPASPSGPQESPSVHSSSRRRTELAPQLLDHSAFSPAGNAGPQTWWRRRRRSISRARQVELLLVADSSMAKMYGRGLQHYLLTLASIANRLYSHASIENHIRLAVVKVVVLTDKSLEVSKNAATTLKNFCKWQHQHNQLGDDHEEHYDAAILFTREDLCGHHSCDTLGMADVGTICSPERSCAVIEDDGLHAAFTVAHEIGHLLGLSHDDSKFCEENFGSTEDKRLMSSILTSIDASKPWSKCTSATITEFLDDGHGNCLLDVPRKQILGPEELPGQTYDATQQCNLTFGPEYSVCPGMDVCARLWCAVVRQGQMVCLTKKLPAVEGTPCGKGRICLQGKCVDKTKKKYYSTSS

[3] = molecular target: T1, human MMP13 (Homo sapiens (Human), UniProt P45452); experiment: hMMP13 assay, Protocol 1 (390 MMP FRET Substrate I, Chemicon enzyme); type: biochemical; conditions: Protocol 1, human MMP13 (Chemicon), read-out: hMMP-13 potency IC50
Description: (§1) Human MMP13 is preactivated by incubated the enzyme in the same buffer complemented with 1 mM freshly prepared p-Aminophenylmercuric acetate (AMPA) for 1 h at 37° C.

[4] = molecular target: human TACE (Homo sapiens (Human), UniProt P78536); experiment: biochemical
Sequence of human TACE (P78536 215-671): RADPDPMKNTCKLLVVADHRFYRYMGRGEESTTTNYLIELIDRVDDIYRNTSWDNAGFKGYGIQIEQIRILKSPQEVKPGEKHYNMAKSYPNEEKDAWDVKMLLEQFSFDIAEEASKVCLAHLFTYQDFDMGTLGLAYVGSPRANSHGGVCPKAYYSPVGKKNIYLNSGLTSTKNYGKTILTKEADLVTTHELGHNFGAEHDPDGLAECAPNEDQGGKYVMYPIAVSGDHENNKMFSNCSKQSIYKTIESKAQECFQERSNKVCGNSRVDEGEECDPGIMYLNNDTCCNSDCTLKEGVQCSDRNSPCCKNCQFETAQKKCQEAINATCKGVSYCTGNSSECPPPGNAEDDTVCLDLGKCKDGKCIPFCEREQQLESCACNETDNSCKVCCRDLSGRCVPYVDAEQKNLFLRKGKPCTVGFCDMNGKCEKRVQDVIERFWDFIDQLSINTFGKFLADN
Description: Finally, the fluorescence is read on the Envision (Perkin Elmer) after an incubation of 75 min at room temperature (Excitation 485 nm, Emission 530).

[5] = molecular target: T2, human ADAMTS-5 (Homo sapiens (Human), UniProt Q9UNA0); experiment: hADAMTS-5 TBIS-1 cleavage assay, Protocol 3; type: biochemical; conditions: 90 min at 37° C., read-out: hADAMTS-5 potency IC50
T2 sequence (Q9UNA0 262-930): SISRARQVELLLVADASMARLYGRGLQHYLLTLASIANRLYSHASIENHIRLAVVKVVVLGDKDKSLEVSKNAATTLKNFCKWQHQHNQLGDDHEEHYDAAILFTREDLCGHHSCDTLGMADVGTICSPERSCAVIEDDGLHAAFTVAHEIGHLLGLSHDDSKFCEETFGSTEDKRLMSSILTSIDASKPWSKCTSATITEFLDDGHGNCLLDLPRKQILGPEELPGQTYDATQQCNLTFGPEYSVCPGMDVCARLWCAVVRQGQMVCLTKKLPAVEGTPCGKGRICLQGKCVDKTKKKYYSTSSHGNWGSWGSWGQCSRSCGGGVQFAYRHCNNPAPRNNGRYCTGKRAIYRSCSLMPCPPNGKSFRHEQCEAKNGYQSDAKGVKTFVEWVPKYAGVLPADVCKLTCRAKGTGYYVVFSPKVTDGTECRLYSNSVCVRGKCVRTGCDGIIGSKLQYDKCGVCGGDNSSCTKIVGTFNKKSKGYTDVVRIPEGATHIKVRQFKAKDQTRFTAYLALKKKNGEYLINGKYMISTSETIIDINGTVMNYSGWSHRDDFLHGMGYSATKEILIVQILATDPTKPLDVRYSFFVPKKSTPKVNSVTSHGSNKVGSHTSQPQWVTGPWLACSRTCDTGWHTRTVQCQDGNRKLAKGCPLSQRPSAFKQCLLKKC
Description: (§2) The reaction is initiated by adding to the assay plate TBIS-1 (10 μL, 4.5 μM, Anaspec) in the same buffer.
Finally, the fluorescence is read on the Envision (Perkin Elmer) after an incubation of 90 min at 37° C. (Excitation 485 nm, emission 530).

[6] = molecular target: T2, human ADAMTS-5; experiment: hADAMTS-5 TBIS-1 cleavage assay, Protocol 2; type: biochemical; conditions: 45 min at 37° C., read-out: ADAMTS5 potency IC50
[7] = molecular target: T1, human MMP13; experiment: hMMP13 assay, Protocol 2 (390 MMP FRET Substrate I, Enzo enzyme); type: biochemical; conditions: Protocol 2, human MMP13 (Enzo Life Sciences), read-out: hMMP-13 potency IC50
Description: as §1

[8] = molecular target: human MMP14 (Homo sapiens (Human), UniProt P50281); experiment: hMMP14 assay (390 MMP FRET Substrate I); type: biochemical; conditions: human MMP14 (Biomol), read-out: hMMP-14 potency IC50
Description: The basis for the assay is the cleavage of the substrate 390 MMP FRET Substrate I (Anaspec Cat #AS-27076) by human MMP14 (Biomol, Cat #SE-259).
The reaction is initiated by adding to the assay plate 390 MMP FRET Substrate I (10 μL, 2.5 μM) in the same buffer.
Finally, the fluorescence is read on the Envision (Perkin Elmer) after an incubation of 60 min at room temperature (Excitation 485 nm, Emission 530).

[9] = molecular target: T3, human ADAMTS4 (Homo sapiens (Human), UniProt O75173); experiment: hADAMTS-4 TBIS-1 cleavage assay, Protocol 2; type: biochemical
T3 sequence (O75173 213-837): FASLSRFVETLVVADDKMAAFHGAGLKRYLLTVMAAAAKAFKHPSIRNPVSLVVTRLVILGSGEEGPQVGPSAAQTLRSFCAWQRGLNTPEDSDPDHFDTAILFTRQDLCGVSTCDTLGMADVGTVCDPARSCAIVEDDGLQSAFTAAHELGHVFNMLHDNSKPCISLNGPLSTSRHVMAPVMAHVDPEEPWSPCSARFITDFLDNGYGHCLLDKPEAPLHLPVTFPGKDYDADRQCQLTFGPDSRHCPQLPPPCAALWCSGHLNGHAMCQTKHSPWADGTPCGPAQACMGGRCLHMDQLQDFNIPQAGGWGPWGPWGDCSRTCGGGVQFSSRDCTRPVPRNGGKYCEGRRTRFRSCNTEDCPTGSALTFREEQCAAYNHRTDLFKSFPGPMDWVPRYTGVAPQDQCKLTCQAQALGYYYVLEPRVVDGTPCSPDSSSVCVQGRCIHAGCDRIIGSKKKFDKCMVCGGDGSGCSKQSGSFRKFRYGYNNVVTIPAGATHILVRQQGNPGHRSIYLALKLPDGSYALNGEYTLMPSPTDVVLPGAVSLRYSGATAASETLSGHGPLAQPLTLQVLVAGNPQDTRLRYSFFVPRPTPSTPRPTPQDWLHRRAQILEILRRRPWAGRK

[10] = molecular target: T3, human ADAMTS4; experiment: hADAMTS-4 TBIS-1 cleavage assay, Protocol 1; type: biochemical; conditions: 60 min at room temperature, read-out: ADAMTS4 potency IC50
Description: as §2
Finally, the fluorescence is read on the Envision (Perkin Elmer) after an incubation of 60 min at room temperature (Excitation 485 nm, emission 535).

[11] = Protocol 2, 180 min at 37° C., read-out: ADAMTS4 potency IC50

Sequence of human ADAMTS6 (Q9UKP5 other isoform, or with tags, fused parts or gaps): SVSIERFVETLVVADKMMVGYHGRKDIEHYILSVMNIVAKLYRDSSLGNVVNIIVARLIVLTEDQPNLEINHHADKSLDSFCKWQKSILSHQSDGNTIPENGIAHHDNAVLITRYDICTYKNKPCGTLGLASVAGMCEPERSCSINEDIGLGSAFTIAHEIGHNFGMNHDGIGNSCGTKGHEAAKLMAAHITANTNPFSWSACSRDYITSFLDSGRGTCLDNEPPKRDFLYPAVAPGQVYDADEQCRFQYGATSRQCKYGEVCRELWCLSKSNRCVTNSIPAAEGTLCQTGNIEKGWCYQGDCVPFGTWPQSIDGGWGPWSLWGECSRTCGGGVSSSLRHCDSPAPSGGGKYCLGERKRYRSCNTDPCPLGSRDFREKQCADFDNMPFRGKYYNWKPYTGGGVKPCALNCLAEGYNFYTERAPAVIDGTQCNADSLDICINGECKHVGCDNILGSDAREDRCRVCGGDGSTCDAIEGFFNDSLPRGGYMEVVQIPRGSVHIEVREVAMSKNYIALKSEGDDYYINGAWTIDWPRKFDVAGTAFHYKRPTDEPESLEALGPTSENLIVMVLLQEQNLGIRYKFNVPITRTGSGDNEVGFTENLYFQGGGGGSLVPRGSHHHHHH

Row | Compound | IC50 [1] [nM] | IC50 [2] [nM] | IC50 [3] [nM] | IC50 [4] [nM] | IC50 [5] [nM] | IC50 [6] [nM] | IC50 [7] [nM] | IC50 [8] [nM] | IC50 [9] [nM] | IC50 [9, 11] [nM] | IC50 [10] [nM]
1 | COc1cc(N2CCN(C(=O)CCC3(C)NC(=O)NC3=O)CC2)ccc1F (stereo not drawn) [Cpd 9, 5-[3-[4-(4-fluoro-3-methoxy-phenyl)piperazin-1-yl]-3-oxo-propyl]-5-methyl-imidazolidine-2,4-dione] | 50 to 100 | > 100 | > 100 | > 100 | > 100 | > 100 |  |  |  |  | 
2 | COc1cc(N2CCN(C(=O)[C@@H](CO)C[C@@]3(C)NC(=O)NC3=O)CC2)cc(F)c1F [Cpd 56, (5R)-5-[(2R)-3-[4-(3,4-difluoro-5-methoxy-phenyl)piperazin-1-yl]-2-(hydroxymethyl)-3-oxo-propyl]-5-methyl-imidazolidine-2,4-dione] | 0.001 to 25 | 25 to 50 |  | > 100 | 25 to 50 |  | > 100 | > 100 | 25 to 50 |  | 
3 | COc1cc(F)cc(N2CCN(C(=O)CCC3(C)NC(=O)NC3=O)CC2)c1 (stereo not drawn) [Cpd 12, 5-[3-[4-(3-fluoro-5-methoxy-phenyl)piperazin-1-yl]-3-oxo-propyl]-5-methyl-imidazolidine-2,4-dione] | > 100 | > 100 | > 100 | > 100 |  | > 100 |  |  |  |  | 
4 | COc1cccc(N2CCN(C(=O)CCC3(c4cccnc4)NC(=O)NC3=O)CC2)c1 (stereo not drawn) [Cpd 6, 5-[3-[4-(3-methoxyphenyl)piperazin-1-yl]-3-oxo-propyl]-5-(3-pyridyl)imidazolidine-2,4-dione] | > 100 | > 100 | > 100 | > 100 |  | > 100 |  |  |  |  | 
5 | CCOc1cccc(N2CCN(C(=O)CCC3(C)NC(=O)NC3=O)CC2)c1 (stereo not drawn) [Cpd 16, 5-[3-[4-(3-ethoxyphenyl)piperazin-1l-yl]-3-oxo-propyl]-5-methyl-imidazolidine-2,4-dione] | > 100 |  |  |  |  | > 100 |  |  |  |  | 
6 | COc1cc(N2CCN(C(=O)CCC3(C)NC(=O)NC3=O)C[C@@H]2C)cc(Cl)c1F (stereo partly drawn) [Cpd 53, 5-[3-[(3 S)-4-(3-chloro-4-fluoro-5-methoxy-phenyl)-3-methyl-piperazin-1l-yl]-3-oxo-propyl]-5-methyl-imidazolidine-2,4-dione] | 0.001 to 25 | > 100 | > 100 | > 100 | 50 to 100 |  | > 100 | > 100 |  | > 100 | 
7 | COc1cc(N2CCN(C(=O)CCC3(C4CC4)NC(=O)NC3=O)CC2)cc(F)c1F (stereo not drawn) [Cpd 18, 5-cyclopropyl-5-[3-[4-(3,4-difluoro-5-methoxy-phenyl)piperazin-1-yl]-3-oxo-propyl]imidazolidine-2,4-dione] | 0.001 to 25 | > 100 | > 100 | > 100 | 50 to 100 | 50 to 100 | > 100 | > 100 |  | > 100 | 
8 | COc1cc(N2CCN(C(=O)[C@@H](C)C[C@@]3(CN4CCC(F)(F)C4)NC(=O)NC3=O)CC2)cc(F)c1F (stereo in doubt) [Cpd 52, 5-[3-[4-(3,4-difluoro-5-methoxy-phenyl)piperazin-1-yl]-2-methyl-3-oxo-propyl]-5-[(3,3-difluoropyrrolidin-1-yl)methyl]imidazolidine-2,4-dione] | 0.001 to 25 | 50 to 100 |  | > 100 | 50 to 100 |  | > 100 | > 100 |  | > 100 | 
9 | COc1cc(Cl)cc(N2CCN(C(=O)CCC3(C)NC(=O)NC3=O)CC2)c1 (stereo not drawn) [Cpd 13, 5-[3-[4-(3-chloro-5-methoxy-phenyl)piperazin-1-yl]-3-oxo-propyl]-5-methyl-imidazolidine-2,4-dione] | 25 to 50 | > 100 | > 100 | > 100 |  | > 100 |  |  |  |  | 
10 | COc1cccc(N2CCN(C(=O)CCC3(c4ccccn4)NC(=O)NC3=O)CC2)c1 (stereo not drawn) [Cpd 8, 5-[3-[4-(3-methoxyphenyl)piperazin-1-yl]-3-oxo-propyl]-5-(2-pyridyl)imidazolidine-2,4-dione] | > 100 | > 100 | > 100 | > 100 |  | > 100 |  |  | 50 to 100 |  | 
11 | CC1(CCC(=O)N2CCN(c3ccc(OC(F)(F)F)cc3)CC2)NC(=O)NC1=O (stereo not drawn) [Cpd 3, 5-methyl-5-[3-oxo-3-[4-[4-(trifluoromethoxy)phenyl]piperazin-1-yl]propyl]imidazolidine-2,4-dione] | > 100 |  | > 100 | > 100 |  | > 100 |  |  |  | > 100 | 
12 | COc1cc(N2CCN(C(=O)CCC3(C4CC4)NC(=O)NC3=O)CC2)ccc1F (stereo not drawn) [Cpd 17, 5-cyclopropyl-5-[3-[4-(4-fluoro-3-methoxy-phenyl)piperazin-1-yl]-3-oxo-propyl]imidazolidine-2,4-dione] | > 100 | > 100 | > 100 | > 100 | > 100 | > 100 |  |  |  | > 100 | 
13 | COc1cccc(N2CCN(C(=O)CCC3(C)NC(=O)NC3=O)CC2)c1 (stereo not drawn) [Cpd 1, 5-[3-[4-(3-methoxyphenyl)piperazin-1-yl]-3-oxo-propyl]-5-methyl-imidazolidine-2,4-dione] | > 100 |  |  | > 100 |  | > 100 |  |  |  |  | > 100
14 | COc1cc(N2CCN(C(=O)CCC3(C)NC(=O)NC3=O)CC2)cc(F)c1F (stereo not drawn) [Cpd 14, 5-[3-[4-(3,4-difluoro-5-methoxy-phenyl)piperazin-1-yl]-3-oxo-propyl]-5-methyl-imidazolidine-2,4-dione] | 25 to 50 | > 100 | > 100 | > 100 | > 100 | > 100 |  |  |  | > 100 | 
15 | COc1ccc(N2CCN(C(=O)CCC3(C)NC(=O)NC3=O)CC2)cc1 (stereo not drawn) [Cpd 5, 5-[3-[4-(4-methoxyphenyl)piperazin-1-yl]-3-oxo-propyl]-5-methyl-imidazolidine-2,4-dione] | > 100 |  |  |  |  | > 100 |  |  |  |  | 
16 | COc1cc(F)cc(N2CCN(C(=O)CCC3(C4CC4)NC(=O)NC3=O)CC2)c1 (stereo not drawn) [Cpd 15, 5-cyclopropyl-5-[3-[4-(3-fluoro-5-methoxy-phenyl)piperazin-1-yl]-3-oxo-propyl]imidazolidine-2,4-dione] | > 100 | 50 to 100 | > 100 | > 100 | 50 to 100 | 50 to 100 |  |  | 50 to 100 |  | 
17 | COC[C@]1(C[C@H](C)C(=O)N2CCN(c3cc(F)c(F)c(OC)c3)CC2)NC(=O)NC1=O [Cpd 59, (5 S)-5-[(2S)-3-[4-(3,4-difluoro-5-methoxy-phenyl)piperazin-1-yl]-2-methyl-3-oxo-propyl]-5-(methoxymethyl)imidazolidine-2,4-dione] | 0.001 to 25 | 0.001 to 25 |  | > 100 | 0.001 to 25 |  | > 100 | > 100 | 25 to 50 |  | 
18 | COc1ccccc1N1CCN(C(=O)CCC2(C)NC(=O)NC2=O)CC1 (stereo not drawn) [Cpd 7, 5-[3-[4-(2-methoxyphenyl)piperazin-1-yl]-3-oxo-propyl]-5-methyl-imidazolidine-2,4-dione] | > 100 |  |  |  | > 100 | > 100 |  |  |  |  | 
19 | COc1cccc(N2CCN(C(=O)CCC3(C4CC4)NC(=O)NC3=O)CC2)c1 (stereo not drawn) [Cpd 2, 5-cyclopropyl-5-[3-[4-(3-methoxyphenyl)piperazin-1-yl]-3-oxo-propyl]imidazolidine-2,4-dione] | > 100 | > 100 |  | > 100 |  | > 100 |  |  |  |  | 25 to 50
20 | CC1(CCC(=O)N2CCN(c3ccccc3OC(F)(F)F)CC2)NC(=O)NC1=O (stereo not drawn) [Cpd 4, 5-methyl-5-[3-oxo-3-[4-[2-(trifluoromethoxy)phenyl]piperazin-1-yl]propyl]imidazolidine-2,4-dione] | > 100 |  |  |  | > 100 | > 100 |  |  |  |  | 
21 | COc1cc(OC)cc(N2CCN(C(=O)CCC3(C)NC(=O)NC3=O)CC2)c1 (stereo not drawn) [Cpd 11, 5-[3-[4-(3,5-dimethoxyphenyl)piperazin-1-yl]-3-oxo-propyl]-5-methyl-imidazolidine-2,4-dione] | > 100 | > 100 | > 100 | > 100 |  | > 100 |  |  |  | > 100 | 
22 | COc1cc(N2CCN(C(=O)CCC3(C)NC(=O)NC3=O)CC2)ccc1Cl (stereo not drawn) [Cpd 10, 5-[3-[4-(4-chloro-3-methoxy-phenyl)piperazin-1-yl]-3-oxo-propyl]-5-methyl-imidazolidine-2,4-dione] | 25 to 50 | > 100 | > 100 | > 100 | > 100 | > 100 |  |  |  | > 100 | 
